# From ChEMBL document CHEMBL5247631, “Ferroptosis-related small-molecule compounds in cancer therapy: Strategies and applications” (Eur J Med Chem, 2022)
# pIC50: −log10 of the molar value.
# Experiments:
# [1] = Cytotoxicity against human BJeLR cells overexpress oncogenic RAS assessed as induction of cell death; type: functional, cell-based
# AGS = assay: Anticancer activity against human AGS cells assessed as inhibition of cell viability incubated for 24 hrs by CCK-8 assay; type: functional, cell-based
# NCI-N87 = assay: Anticancer activity against human NCI-N87 cells assessed as inhibition of cell viability incubated for 24 hrs by CCK-8 assay; type: functional, cell-based; settings: NCI-N87, 24 h
# SU-DHL-5 = assay: Anticancer activity against human SU-DHL-5 cells assessed as reduction in cell viability incubated for 24 hrs by CellTiter-Glo luminescent assay; type: functional, cell-based; settings: SU-DHL-5, 24 h
# SU-DHL10 = assay: Anticancer activity against human SU-DHL-10 cells assessed as reduction in cell viability incubated for 24 hrs by CellTiter-Glo luminescent assay; type: functional, cell-based; settings: SU-DHL10, 24 h
# [2] = Anticancer activity against human OCI-Ly8 cells assessed as reduction in cell viability incubated for 24 hrs by CellTiter-Glo luminescent assay; type: functional, cell-based; settings: OCI-Ly8, 24 h
# SU-DHL-6 = assay: Anticancer activity against human SU-DHL-6 cells assessed as reduction in cell viability incubated for 24 hrs by CellTiter-Glo luminescent assay; type: functional, cell-based; settings: SU-DHL-6, 24 h
# DOHH-2 = assay: Anticancer activity against human DOHH-2 cells assessed as reduction in cell viability incubated for 24 hrs by CellTiter-Glo luminescent assay; type: functional, cell-based; settings: DOHH-2, 24 h
# [3] = Anticancer activity against human BJeLR cells assessed as reduction in cell viability incubated for 24 hrs by CellTiter-Glo luminescent assay; type: functional, cell-based
# SU-DHL-2 = assay: Anticancer activity against human SUDHL2 cells assessed as reduction in cell viability incubated for 24 hrs by CellTiter-Glo luminescent assay; type: functional, cell-based; settings: SU-DHL-2, 24 h
# SU-DHL-16 = assay: Anticancer activity against human SU-DHL-16 cells assessed as reduction in cell viability incubated for 24 hrs by CellTiter-Glo luminescent assay; type: functional, cell-based; settings: SU-DHL-16, 24 h
# [4] = Anticancer activity against human PHMLER expressing CD24low phenotype cells assessed as reduction in cell viability incubated for 72 hrs; type: functional, cell-based
# MDA-MB-231 = assay: Cytotoxicity against human MDA-MB-231 cells assessed as inhibition of cell viability incubated for 24 hrs by sulforhodamine B assay; type: functional, cell-based; settings: MDA-MB-231, 24 h
# DBTRG-05MG = assay: Cytotoxicity against human DBTRG-05MG cells assessed as inhibition of cell viability incubated for 24 hrs by sulforhodamine B assay; type: functional, cell-based
# MEF = assay: Antitumor activity against mouse MEF cells xenografted in nude mouse assessed as reduction in tumor weight at 40 mg/kg, po twice daily for 7 days relative to control; type: functional; design: scale not given: the % may be the effect or the level left; settings: time 7 day
# SW480 [5] = assay: Anticancer activity against human SW480 cells assessed as reduction in cell viability incubated for 24 hrs in presence of 10% FBS by CCK8 assay; type: functional, cell-based; settings: SW480, 24 h
# [6] = Induction of ferroptosis in human BJeLR cells assessed as inhibition of (cystine-glutamate antiporter) system Xc- mediated cystine transport; type: functional, cell-based; settings: bjelr cell
# SK-MEL-28 = assay: Antiproliferative activity against human SK-MEL-28 cells harboring BRAF V600E mutant assessed as cell viability incubated for 72 hrs by crystal violet staining based assay; type: functional; settings: SK-MEL-28, 72 h
# G-361 = assay: Antiproliferative activity against human G-361 cells harboring BRAF V600E mutant assessed as cell viability incubated for 72 hrs by crystal violet staining based assay; type: functional; settings: G-361, 72 h
# ES-2 = assay: Anticancer activity against human ES2 cells assessed as reduction in cell viability incubated for 72 hrs by Alamar Blue viability assay; type: functional, cell-based; settings: ES-2, 72 h
# [7] = Antiproliferative activity against BALB/C mouse TBCP-1 cells assessed as inhibition of cell proliferation incubated for 3 days by sulforhodamine B colorimetric assay; type: functional, cell-based; settings: TBCP-1, 72 h
# SK-BR-3 = assay: Antiproliferative activity against human SK-BR-3 cells assessed as inhibition of cell proliferation incubated for 3 days by sulforhodamine B colorimetric assay; type: functional, cell-based; settings: SK-BR-3, 72 h
# HCT-116 = assay: Antitumor activity against human HCT-116 cells assessed as reduction in cell viability incubated for 48 hrs by CCK8 assay; type: functional, cell-based; settings: HCT-116, 48 h
# SW480 [8] = assay: Antitumor activity against human SW480 cells assessed as reduction in cell viability incubated for 48 hrs by CCK8 assay; type: functional, cell-based; settings: SW480, 48 h
# RKO = assay: Antitumor activity against human RKO cells assessed as reduction in cell viability incubated for 48 hrs by CCK8 assay; type: functional, cell-based
smiles,measurement,setting,value
O=S(=O)(c1ccc2c(c1)C(=NO)c1cc(S(=O)(=O)N3CCCCC3)ccc1-2)N1CCCCC1,pIC50,[1],< 6.00
C[C@@H]1CC[C@@]2(OC1)O[C@H]1C[C@H]3[C@@H]4CC=C5C[C@@H](O)C[C@@H](O[C@H]6O[C@H](C)[C@H](O)[C@H](O)[C@H]6O[C@@H]6O[C@@H](C)[C@H](O)[C@@H](O)[C@H]6O)[C@]5(C)[C@H]4CC[C@]3(C)[C@H]1[C@@H]2C,pIC50,AGS,4.99
same,pIC50,NCI-N87,4.67
CC(C)Oc1ccc(C(=O)Cn2ccnc2)cc1-n1c(CN2CCN(C(=O)COc3ccc(Cl)cc3)CC2)nc2ccccc2c1=O,pIC50,SU-DHL-5,9.00
same,pIC50,SU-DHL10,8.40
same,pIC50,[2],9.00
same,pIC50,SU-DHL-6,9.00
same,pIC50,DOHH-2,7.85
same,pIC50,[3],8.52
same,pIC50,SU-DHL-2,7.68
same,pIC50,SU-DHL-16,7.92
C#CCN[C@@H]1C=C[C@]2(O[C@H]([C@@H](CC)C(=O)[C@@H](C)[C@@H](O)[C@H](C)[C@@H]3O[C@@H]([C@@H](CC)C(=O)O)CC[C@@H]3C)[C@@H](C)C[C@H]2C)O[C@@]12CC[C@@](C)([C@H]1CC[C@](O)(CC)[C@H](C)O1)O2,pIC50,[4],7.00
CC[C@@H](C(=O)[C@@H](C)[C@@H](O)[C@H](C)[C@@H]1O[C@@H]([C@@H](CC)C(=O)O)CC[C@@H]1C)[C@H]1O[C@]2(C=C[C@@H](O)[C@]3(CC[C@@](C)([C@H]4CC[C@](O)(CC)[C@H](C)O4)O3)O2)[C@H](C)C[C@@H]1C [SALINOMYCIN],pIC50,[4],6.00
CC(C)(C)c1ccc(S(=O)(=O)/C=C/C#N)cc1 [BAY-11-7085],pIC50,MDA-MB-231,5.37
same,pIC50,DBTRG-05MG,5.26
C[C@H](CN1CCCC1)C(=O)c1ccc(C(F)(F)F)cc1 [LANPERISONE],Activity,MEF,37%
CCC(C)/C=C(\C)[C@H]1C(C)=C[C@@]2(C)C[C@@H](C)CC[C@@H]2[C@H]1C(=O)C1=C/C(=C/c2ccc(O)cc2)NC1=O (stereo partly specified) [TALAROCONVOLUTIN A],pIC50,SW480 [5],5.09
CCCC[S@@](=N)(=O)CC[C@@H](N)C(=O)O,pIC50,[6],> 5.00
Cc1cc(-c2nc(-c3ccc(OC(F)(F)F)cc3)no2)nn1Cc1ccnc(N2CCN(C3CC3)CC2)c1,pIC50,SK-MEL-28,5.62
same,pIC50,G-361,5.32
CC1CC[C@@]23C[C@H](O)C(=O)[C@@]2(O)[C@]1(C)[C@H](OC(=O)CCl)C[C@@H](C1=CCn2c(=O)n(-c4ccccc4)c(=O)n2C1)[C@@H]3C (stereo partly specified),pIC50,ES-2,5.80
CCOc1cc2ncc(C#N)c(Nc3ccc(OCc4ccccn4)c(Cl)c3)c2cc1NC(=O)/C=C/CN(C)C [NERATINIB],pIC50,[7],6.93
same,pIC50,SK-BR-3,8.14
C=CCc1ccc(O)c(-c2ccc(O)c(CC=C)c2)c1 [HONOKIOL],pIC50,HCT-116,4.32
same,pIC50,SW480 [8],4.82
same,pIC50,RKO,4.94
